# Laboratory results from PubChem BioAssay (NCI).
# “And” between values parts separate entries of the source, which are not always exact repeats. Equal values may be shown once.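 Cultured in 96-well plates, cells were exposed to test compound for 48 hours across five concentrations. GI50 is the concentration that inhibits growth by half. TGI marks complete inhibition of growth.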
# What was measured:
# Assay in all cases: NCI tumour cell line growth inhibition, 48 h
# [1] = tested on: SN12K1 renal
# [2] = tested on: XF 498 CNS
# [3] = tested on: DMS 273 small cell lung
# [4] = tested on: HOP-18 NSCLC
# [5] = tested on: SNB-78 CNS
# [6] = tested on: DMS 114 small cell lung
# [7] = tested on: P388/ADR leukemia
# [8] = tested on: 786-0 renal
# [9] = tested on: DLD-1 colon
# [10] = tested on: LXFL 529 NSCLC
Structure (SMILES),GI50 [1] [nM],TGI [1] [µM],TGI [2] [µM],TGI [3] [µM],TGI [4] [µM],GI50 [5] [nM],TGI [6] [µM],TGI [7] [µM],TGI [8],GI50 [9] [nM],TGI [10] [µM],TGI [5] [µM],TGI [9] [µM],GI50 [4] [µM]
COc1cc([C@@H]2c3cc4c(c(O)c3C[C@H]3COC(=O)[C@@H]32)OCO4)cc(OC)c1OC,0.0526,0.000207,0.0887,1.5,61.9,0.011,1.5,35.1,46.8 µM and > 100 µM,0.0646,–,–,–,–
Cc1nc2c(c(=O)[nH]1)S/C(=C(/C#N)c1nc3ccccc3[nH]1)N2c1ccccc1,–,–,> 100,> 100,–,–,> 100,–,–,–,> 100,> 100,> 100,–
C=C(C)C(=O)O[C@H]1CC2=C[C@@H](C[C@@]3(C)O[C@@H]3[C@H]3OC(=O)C(=C)[C@@H]31)OC2=O,–,12.1,–,8.09,10.9,1270,9.35,11.1,–,–,–,300,3.3,6.42
NC(CSCc1ccc(I)cc1)C(=O)O (stereo not given),–,–,–,–,–,–,–,–,> 100 µM,–,–,–,–,–
O=C1C(Cl)N(c2cccc(Cl)c2)C1c1c[nH]c2ccccc12 (stereo not given),–,–,> 100,–,–,–,> 100,–,–,–,> 100,–,–,–
NC(=S)N/N=C/c1nccc2ccccc12,–,–,–,12.9,> 100,–,2.51,–,–,–,> 100,–,> 100,–
COc1ccc2c(c1O)-c1cc(O)cc3c1[C@@H](C2)N(C)CC3,–,122,160,127,–,–,–,180,–,–,–,212,121,–
